Key:
Format in all cases: physicochemical
[1] = Solubility of Compound 1 formulated with HPBCD (FIG. 2, FIG. 3)
Text: FIG. 2 depicts the water solubility of the unionized form of Compound 1 with increasing concentrations of hydroxypropyl-beta-cyclodextrin (HPBCD). FIG. 3 depicts the water solubility of the ionized form of Compound 1 at pH 9.0 and 10.3 with increasing concentrations of hydroxypropyl-beta-cyclodextrin (HPBCD).

[2] = Water solubility of Compound 1 with increasing pH (FIG. 1)
Text: FIG. 1 depicts the water solubility of Compound 1 with increasing pH. The aqueous pharmaceutical compositions of the invention include a solubilizer/complexant component, to aid in solubilizing the ERβ selective ligand. […] Accordingly, present compositions include a solubilizer/complexant component to aid in solubilization. Generally, the solubilizer/complexant component consists of one or more solubilizing and/or complexing agents known to be useful in the preparation of pharmaceutical formulations. In some embodiments, the solubilizer/complexant component consists of a single solubilizing and/or complexing agent. In some embodiments, the solubilizer/complexant component includes, but is not limited to, cosolvents such as glycerine, ethanol, propylene glycol, sorbitol and polyethylene glycol, and surfactants such as the polyoxyethylene sorbitan fatty acid esters (e.g., polysorbate 80), polyoxyethylene castor oil derivatives (e.g., cremophor EL, cremophor RH40), vitamin E TPGS (d-alpha-tocopheryl polyethylene glycol), solutol (polyethylene glycol esters of hydroxystearate), polyoxyethylene-polyoxypropylene copolymers, polyoxyethylene fatty alcohol ethers, polyethoxylated fatty acid esters, polyoxyethylene-glycerol fatty esters, polyglycolized glycerides, polyethoxylated cholesterols, polyethoxylated sterols, and polyethoxylated vegetable oils. In some embodiments, the solubilizer/complexant component includes, but is not limited to, cosolvents such as glycerine, ethanol, propylene glycol, and polyethylene glycol, and surfactants such as the polyoxyethylene sorbitan fatty acid esters, polyoxyethylene castor oil derivatives, vitamin E TPGS, and solutol. […] Examples of some preferred solubilizing and/or complexing agents include cyclodextrins (including alpha, beta and gamma cyclodextrins) and substituted cyclodextrins, for example hydroxypropyl beta-cyclodextrin and sulfobutyl ether beta-cyclodextrin, with hydroxypropyl beta-cyclodextrin being preferred. […]

[3] = Serial dilution study with phosphate buffered saline as diluent and blood model; precipitate observed for two minutes
Description: A serial dilution study was also undertaken to assess the risk of Compound 1 precipitating upon injection. Phosphate buffered saline (PBS) was used as the diluent and blood model. Accordingly, 10 mg/mL (at pH 9.2) and 30 mg/mL (at pH 10.5) compositions of Compound 1 were prepared by the method described in Example 1, both having 15% HPBCD. The solutions were then serially diluted with PBS.

[4] = Chemical stability of a pharmaceutical composition of Compound 1 (potency, degradation impurities by HPLC); details: for Potency (percent of the initial API concentration) / Impurity (MW not given) / Impurity MW 279 / Impurity MW 556 / Impurity MW 574: 15% HPBCD, pH 9.2; for Impurity (MW not given) / Impurity MW 279 / Impurity MW 556 / Impurity MW 574: HPLC
Description: As used herein, potency refers to the percent of the initial API concentration.
The potency of each composition was determined, and the concentration of impurities from degradation was measured by HPLC, as shown in Table 4.

N#Cc1cc(-c2ccc(O)c(F)c2)cc2ccc(O)cc12 [Compound 1, 3-(3-Fluoro-4-hydroxy-phenyl)-7-hydroxy-naphthalene-1-carbonitrile]
increase in solubility ([1]; 15% HPBCD at pH 9, compared with free acid form at pH 6.3-7.6 formulated with 15% HPBCD): 10 fold
increase in solubility ([1]; 15% HPBCD at pH 10.3, compared with free acid form at pH 6.3-7.6 formulated with 15% HPBCD): 30 fold
solubility at the pH maxima considered safe for IV administration ([2]; about pH 10): poorly soluble
solubility at lower pH ([2]; lower pH): relatively insoluble
solubility in water ([2]; water): insoluble in water
Precipitate at 2 min. ([3]; 10 mg/mL (pH 9.2) composition, 15% HPBCD, diluted with PBS to 0.009766 mg/mL, pH 7.43): none
Precipitate at 2 min. ([3]; 10 mg/mL (pH 9.2) composition, 15% HPBCD, diluted with PBS to 0.019531 mg/mL, pH 7.45): none
Precipitate at 2 min. ([3]; 10 mg/mL (pH 9.2) composition, 15% HPBCD, diluted with PBS to 0.039063 mg/mL, pH 7.47): none
Precipitate at 2 min. ([3]; 10 mg/mL (pH 9.2) composition, 15% HPBCD, diluted with PBS to 0.078125 mg/mL, pH 7.57): none
Precipitate at 2 min. ([3]; 10 mg/mL (pH 9.2) composition, 15% HPBCD, diluted with PBS to 0.15625 mg/mL, pH 7.75): none
Precipitate at 2 min. ([3]; 10 mg/mL (pH 9.2) composition, 15% HPBCD, diluted with PBS to 0.3125 mg/mL, pH 8.01): none
Precipitate at 2 min. ([3]; 10 mg/mL (pH 9.2) composition, 15% HPBCD, diluted with PBS to 0.625 mg/mL, pH 8.36): none
Precipitate at 2 min. ([3]; 10 mg/mL (pH 9.2) composition, 15% HPBCD, diluted with PBS to 1.25 mg/mL, pH 8.65): none
Precipitate at 2 min. ([3]; 10 mg/mL (pH 9.2) composition, 15% HPBCD, diluted with PBS to 2.5 mg/mL, pH 8.83): none
Precipitate at 2 min. ([3]; 10 mg/mL (pH 9.2) composition, 15% HPBCD, diluted with PBS to 5 mg/mL, pH 9.04): none
concentration of Compound 1 on dilution relative to water solubility (FIG. 4) ([3]; 10 mg/mL and 30 mg/mL solutions, 15% HPBCD, serial dilution with PBS): maintained above the water solubility for sufficient time for complete dilution in the blood stream
tendency to precipitate upon dilution ([3]; 10 mg/mL solution versus 30 mg/mL solution, both 15% HPBCD, diluted with PBS): lower tendency to precipitate upon dilution
Precipitate at 2 min. ([3]; 30 mg/mL (pH 10.5) composition, 15% HPBCD, diluted with PBS to 0.029297 mg/mL, pH 7.55): yes
Precipitate at 2 min. ([3]; 30 mg/mL (pH 10.5) composition, 15% HPBCD, diluted with PBS to 0.058594 mg/mL, pH 7.68): yes
Precipitate at 2 min. ([3]; 30 mg/mL (pH 10.5) composition, 15% HPBCD, diluted with PBS to 0.117188 mg/mL, pH 8): yes
Precipitate at 2 min. ([3]; 30 mg/mL (pH 10.5) composition, 15% HPBCD, diluted with PBS to 0.234375 mg/mL, pH 8.45): yes
Precipitate at 2 min. ([3]; 30 mg/mL (pH 10.5) composition, 15% HPBCD, diluted with PBS to 0.46875 mg/mL, pH 8.82): none
Precipitate at 2 min. ([3]; 30 mg/mL (pH 10.5) composition, 15% HPBCD, diluted with PBS to 0.9375 mg/mL, pH 9): none
Precipitate at 2 min. ([3]; 30 mg/mL (pH 10.5) composition, 15% HPBCD, diluted with PBS to 1.875 mg/mL, pH 9.32): none
Precipitate at 2 min. ([3]; 30 mg/mL (pH 10.5) composition, 15% HPBCD, diluted with PBS to 3.75 mg/mL, pH 9.6): none
Precipitate at 2 min. ([3]; 30 mg/mL (pH 10.5) composition, 15% HPBCD, diluted with PBS to 7.5 mg/mL, pH 9.9): none
Precipitate at 2 min. ([3]; 30 mg/mL (pH 10.5) composition, 15% HPBCD, diluted with PBS to 15 mg/mL, pH 10.17): none
Potency (percent of the initial API concentration) ([4]; stored 1 mo. at 25 °C): 100.8
Potency (percent of the initial API concentration) ([4]; stored 1 mo. at 40 °C): 100.4
Impurity (MW not given) ([4]; stored 1 mo. at 40 °C): 0.06
Impurity MW 279 ([4]; stored 1 mo. at 40 °C): 0.07
Impurity MW 556 ([4]; stored 1 mo. at 40 °C): 0.33
Impurity MW 574 ([4]; stored 1 mo. at 40 °C): 0.03
Potency (percent of the initial API concentration) ([4]; stored 3 mo. at 4 °C): 99.9
Potency (percent of the initial API concentration) ([4]; stored 3 mo. at 25 °C): 98.9
Impurity (MW not given) ([4]; stored 3 mo. at 25 °C): 0.02
Impurity MW 279 ([4]; stored 3 mo. at 25 °C): 0.03
Impurity MW 556 ([4]; stored 3 mo. at 25 °C): 0.11
Potency (percent of the initial API concentration) ([4]; stored 3 mo. at 40 °C): 98.1
Impurity (MW not given) ([4]; stored 3 mo. at 40 °C): 0.12
Impurity MW 279 ([4]; stored 3 mo. at 40 °C): 0.16
Impurity MW 556 ([4]; stored 3 mo. at 40 °C): 0.62
Impurity MW 574 ([4]; stored 3 mo. at 40 °C): 0.06
Potency (percent of the initial API concentration) ([4]; stored 6 mo. at 4 °C): 98.0
Impurity MW 556 ([4]; stored 6 mo. at 4 °C): 0.06
Potency (percent of the initial API concentration) ([4]; stored 6 mo. at 25 °C): 97.7
Impurity (MW not given) ([4]; stored 6 mo. at 25 °C): 0.04
Impurity MW 279 ([4]; stored 6 mo. at 25 °C): 0.05
Impurity MW 556 ([4]; stored 6 mo. at 25 °C): 0.36
Impurity MW 574 ([4]; stored 6 mo. at 25 °C): 0.03
Potency (percent of the initial API concentration) ([4]; stored 6 mo. at 40 °C): 93.3
Impurity (MW not given) ([4]; stored 6 mo. at 40 °C): 0.3
Impurity MW 279 ([4]; stored 6 mo. at 40 °C): 0.4
Impurity MW 556 ([4]; stored 6 mo. at 40 °C): 1.57
Impurity MW 574 ([4]; stored 6 mo. at 40 °C): 0.11
molecular weight 556 impurity ([4]; comparable formulation without the HPBCD (5 mg/mL, 50 mM glycine buffer, pH 11), at three days): 0.34%

From patent publication US20070191442A1, “Aqueous Pharmaceutical Formulations of ER-beta Selective Ligands” (priority 2006, published 2007)
